Patent US12629355B2, “Drug inhibitor against migration and invasion of cancer cells and methods of treating against metastasis of cancer cells” (HOWARD UNIVERSITY, priority 2019, dated 2026)

Assays:
Type in all cases: cell-based
U251 cells [1] = assay: Actin stress fiber development in lamellipodia (FIG. 6); conditions: U251 cells grown 72 h, versus DMSO
Source text: Actin stress fibers are known to regulate the mesenchymal migrating cells by regulating the myosin-based contractility to achieve directional cell migration (Vallenius 2013). […] As these stress fibers are needed for other cellular functions required for directional movement, a lack of a visible stress fibers should inhibit cells treated with a representative compound (SD 29-14) from acquiring necessary traction generation to migrate. Actin stress fiber development has been reported to be needed to generate traction forces, establishment of the front-to-back polarity axis, retraction of the trailing edge, and extracellular matrix remodeling-development that collectively regulates the directional movement of migrating cell (Vallenius 2013). The cells were grown 72 h at conditions described for the cells imaged in FIG. 4 and were photographed under a Zeiss brand compound microscope at 40× magnification.

U251 cells [2] = assay: Transwell invasion assay (FIG. 10); conditions: serum free media with TGF in upper chamber, about 14 hours
Experimental: A transwell assay is conducted as a means for testing for invasion. A transwell invasion assay can be used to test the invasive potential of cells in response migration inducers or inhibitors. This assay is also known as modified Boyden chamber assay. During this assay, cells are placed on the upper layer of a cell culture insert with permeable membrane and a solution containing the test agent is placed below the cell permeable membrane. Following an incubation period (3-18 hours) at 37° C. in a humidified chamber, the cells that have stuck during the migration towards the lower chamber through the membrane are stained and counted. […] Collectively, these findings (as shown in FIG. 9 and FIG. 10) indicate that administering a representative compound (SD 29-14) played a significant functional role in the regulation of U251 glioma cell migration and invasion.
In measuring cell invasion, 12-well transwell chambers (Corning Inc., Kennebunk, ME) were used with 6.5 mm inserts and 8.0 μm membrane pore size. […] Invasive cells on the bottom surface were fixed with 4% paraformaldehyde for 15 min and stained with 0.2% crystal violet for 15 minutes and the cells were counted and photographed under a light microscope.

FAK = assay: Localization of FAK, immunofluorescence (FIG. 13); conditions: versus DMSO+TGF (5 ng/ml) control
Experimental: FIG. 13 presents in photomicrographs a comparison between an illustrative cancer in which the treatment involved using DMSO+TGF (5 ng/ml) as a control and the illustrative cancer cell in which the in vitro treatment involved using a compound according to a formulae (1), (2) or (3) herein+TGF (5 ng/ml). The block of four photomicrographs on the left is for the control. […] Inability to co-localize would inhibit the downstream modifications of FAK reported as needed for migration.
As to FIGS. 12 and 13, cells were grown to almost 80% confluency and then serum starved for 24 hours. Then treated with the representative compound SD 29-14 for additional 24 h. No TGFbeta1 was used in this assay. After 24 h, cells were prepared for the immunofluorescence imaging essentially with the same procedure as described for FIG. 9. The antibody for the FAK was purchased from GeneTex (Irvine, CA). The secondary was rabbit TRITC. The primary RACK1 antibody coupled with a FITC reporter was purchased from Santa Cruz Biotechnology (Dallas, TX).

U251 cells [3] = assay: F-actin foci and pY397-FAK organization, immunofluorescence (FIG. 20); conditions: 96 h, 2 ng/ml TGF-beta1
Source text: Cell cytoskeleton plays a significant role during the migration and invasion of cancer cells. Changes in the cytoskeleton accompanies the cell shape changes and which subsequently changes the dynamic actin polymerization and depolymerization process. The attachment of cells to the substrate is integrin dependent and as such it was postulated that the RACK1 dependent migration will also regulate the cytoskeleton changes. In this regard, F-actin foci helps stress fiber based directional filipodia development. To visualize F-actin, we used […] that labels the F-actins. FAK located at focal contact which is actin based anchoring junction that links the cells with the ECM and mostly used by motile cells like the metastatic cancer cells. FAK is known as the key regulator of the F-actin dynamics (Li et al., 2013). (Li S Y, et al., Focal adhesion kinase is a regulator of F-actin dynamics: New insights from studies in the testis, Spermatogenesis, 3 (3): e25385 (2013).
The presence of pY397-FAK can be seen in a linear organized way within the migratory structures but such organized presence of the pY397-FAK was not seen in the presence of the representative compound (SD29-14).
As to FIG. 20, and methods, U251 cells were grown on glass coverslip for 96 h in the presence or absence of SD29-14 containing MEM media with 2 ng/ml TGF-beta1 growth factor. […]

With Nn1c(S)nnc1-c1cc(Cl)cc(Cl)c1 [SD 29-14] the “actin stress fiber development in lamellipodia” value (U251 cells [1]) was “no visible stress fiber like radiating structures were visible”, the “cells on the membrane (invasion)” value (U251 cells [2]) was “hardly any cells were observed on the membrane” and the “localization of FAK” value (FAK) was “blocks localization of FAK”. The “number and intensity of F-actin foci” value (U251 cells [3]) was “reduced the number and intensity of the F-actin foci”.
